Results reported in patent EP4722228A1, “NEW COMPOUND TARGETING MUSK AND USE THEREOF” (The University of Tokyo, priority 2023, dated 2024).
Numbered stars: 1 amine (or outer) side, 2 acyl side, 3 side chain; on linkers, the order of the positions; unused ones are H or OH. Bridge positions count the residues as written; N and C are the ends. Square brackets hold non-standard residues; d marks the D form. Peptide text beside a SMILES is read from it. I, II: the chains in the order shown. X1 = O=C(CCN1C(=O)CC([*:1])C1=O)NCCOCCOCCOCCOCCOCCOCCOCCOCCOCCOCCOCCNC(=O)CCN1C(=O)CC([*:2])C1=O; X2 = O=C(CCN1C(=O)CC([*:1])C1=O)NCCCOCCOCCOCCCNC(=O)CCN1C(=O)CC([*:2])C1=O

biological target: T1, human MuSK (Homo sapiens, UniProt O15146); test: SPR binding activity test to human MuSK (Biacore); details: human MuSK, peptide homodimers
T1 construct: DNA corresponding to the extracellular portion (amino acids 1-493) was amplified by a PCR method; made in house; host or cells: Expi293F cells
T1 sequence (O15146 24-493): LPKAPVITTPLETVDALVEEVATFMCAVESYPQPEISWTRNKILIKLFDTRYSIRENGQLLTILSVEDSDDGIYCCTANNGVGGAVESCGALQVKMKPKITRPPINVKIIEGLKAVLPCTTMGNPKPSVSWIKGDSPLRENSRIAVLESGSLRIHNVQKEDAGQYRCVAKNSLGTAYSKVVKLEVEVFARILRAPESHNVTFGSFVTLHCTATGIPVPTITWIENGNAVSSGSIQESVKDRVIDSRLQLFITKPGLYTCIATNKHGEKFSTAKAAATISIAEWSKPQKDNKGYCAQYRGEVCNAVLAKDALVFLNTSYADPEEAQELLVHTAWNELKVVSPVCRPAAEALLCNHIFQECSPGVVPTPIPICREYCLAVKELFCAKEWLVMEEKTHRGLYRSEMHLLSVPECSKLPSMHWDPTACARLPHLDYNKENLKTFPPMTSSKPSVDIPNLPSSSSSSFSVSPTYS
Procedure: The human MuSK protein (extracellular portion) was prepared as a recombinant protein as follows. Using a Flexi clone (FXC31275, Promega Corporation) encoding Human MuSK isoform 1 precursor (NCBI Reference Sequence: NP_005583.1) as a template, DNA corresponding to the extracellular portion (amino acids 1-493) was amplified by a PCR method. XhoI and EcoRI restriction enzyme recognition sequences were added to both the 5' and 3' ends of the amplified DNA sequence, and these were used for insertion into the multiple cloning site of a pCAG-Neo hIgG1-Fc plasmid (Fujifilm Wako Pure Chemical Corporation). This plasmid (pCAG-Neo hMuSK-Fc) enables expression of a chimeric protein of the secretory human MuSK extracellular portion and human IgG1 Fc (hMuSK-Fc; molecular weight of approximately 200 kDa) in animal cells. In practice, ExpiFectamine 293 reagent (Invitrogen) was used to transfect the pCAG-Neo hMuSK-Fc plasmid into Expi293F cells (Invitrogen), and shaking culture was carried out (for 6 days) in an incubator containing 8% CO2. Next, the culture supernatant was collected, centrifuged, and sterilized by filtration through a 0.22 µm filter. The obtained culture supernatant was subjected to Protein G purification, and finally, a purified hMuSK-Fc sample with 99.96% purity (AKTA-FPLC analysis) was obtained.
The strength of binding between MuSK and the cyclic peptides was evaluated by quantitatively measuring the binding kinetics (binding affinity (dissociation constant) KD) of the cyclic peptides to MuSK immobilized on a sensor chip via an Fc tag, using surface plasmon resonance (SPR).
According to the standard immobilization protocol provided by the manufacturer, Fc-tagged human/mouse/rat MuSK was immobilized on a Protein G chip or a Protein A chip (Cytiva). A running buffer for the monomer/dimer peptides contained 0.010 M phosphate, 0.14 M NaCl, 0.0027 M KCl, 0.05% (v/v) Tween 20, and 0.1% (v/v) DMSO. A running buffer for the monomer/dimer U-bodies contained 0.010 M phosphate, 0.14 M NaCl, 0.0027 M KCl, and 0.05% (v/v) Tween 20. A series of concentrations of each monomer peptide, dimer peptide, monomer U-body, and dimer U-body was injected as analytes. A 1:1 binding fitting analysis was applied using Biacore evaluation software, and ka, kd, and KD values were determined.
Fc-tagged human MuSK was prepared according to the procedure described in Example 1(1). In addition, Fc-tagged mouse MuSK was used by expressing a nucleotide sequence encoding the Fc-tagged mouse MuSK extracellular domain (SEQ ID NO: 34). In addition, Fc-tagged rat MuSK was used as a chimeric protein of rat MuSK and an Fc protein, namely, Recombinant Rat MuSK Fc Chimera Protein (catalog number: 9847-MK-050, R&D Systems).
The affinity of the U-bodies and their complexes obtained as described above for MuSK of human, rat, and mouse was evaluated (binding activity test). The test was carried out according to the procedure described in Example 1(3). However, for the complexes of U-bodies, surface plasmon resonance (SPR) analysis was carried out using a Biacore 8K (Cytiva).

Compound	koff [s⁻¹]	kon [M⁻¹ s⁻¹]
I: Ac-[dY]LPEFSWPESFVLFLRQRQRQLGRGAEC-NH2 / II: Ac-[dY]LPEFSWPESFVLFLRQRQRQLGRGAEC-NH2 (linker I:28-II:28 via X2) [MuSK1Ac Term PEG3 dimer]	0.0012	200000
CC(C)C[C@@H]1NC(=O)[C@H](CO)NC(=O)[C@H](C)NC(=O)[C@H](C(C)C)NC(=O)[C@H](C(C)C)NC(=O)[C@H](CC(N)=O)NC(=O)[C@H]([C@@H](C)O)NC(=O)[C@H](Cc2c[nH]cn2)NC(=O)[C@H](Cc2ccc(O)cc2)NC(=O)[C@H](CO)NC(=O)[C@@H]2CCCN2C(=O)[C@@H](Cc2ccc(O)cc2)NC(=O)CSC[C@@H](C(=O)N[C@@H](CSC2CC(=O)N(CCC(=O)NCCCOCCOCCOCCCNC(=O)CCN3C(=O)CC(SC[C@H](NC(=O)[C@@H]4CSCC(=O)N[C@H](Cc5ccc(O)cc5)C(=O)N5CCC[C@H]5C(=O)N[C@@H](CO)C(=O)N[C@@H](Cc5ccc(O)cc5)C(=O)N[C@@H](Cc5c[nH]cn5)C(=O)N[C@@H]([C@@H](C)O)C(=O)N[C@@H](CC(N)=O)C(=O)N[C@@H](C(C)C)C(=O)N[C@@H](C(C)C)C(=O)N[C@@H](C)C(=O)N[C@@H](CO)C(=O)N[C@@H](CC(C)C)C(=O)N[C@@H](CCCCN)C(=O)N[C@@H](CCCNC(=N)N)C(=O)N4)C(N)=O)C3=O)C2=O)C(N)=O)NC(=O)[C@H](CCCNC(=N)N)NC(=O)[C@H](CCCCN)NC1=O (some centres unmarked) [MuSK7 PEG3 dimer] (I: {CH2CO}-[dY]PSYHTNVVASLKRCC-NH2 / II: {CH2CO}-[dY]PSYHTNVVASLKRCC-NH2; linker I:16-II:16 via X2; thioether I:N-I:15, II:N-II:15)	0.00034	540000
CC[C@H](C)[C@@H]1NC(=O)[C@H](CC(N)=O)NC(=O)[C@H](C(C)C)NC(=O)[C@H](Cc2ccc(O)cc2)NC(=O)CNC(=O)[C@@H]2CCCN2C(=O)[C@H](CCC(N)=O)NC(=O)[C@H](CC(C)C)NC(=O)[C@H](Cc2ccc(O)cc2)NC(=O)[C@H](Cc2c[nH]c3ccccc23)NC(=O)[C@@H](Cc2ccc(O)cc2)NC(=O)CSC[C@@H](C(=O)N[C@@H](CSC2CC(=O)N(CCC(=O)NCCCOCCOCCOCCCNC(=O)CCN3C(=O)CC(SC[C@H](NC(=O)[C@@H]4CSCC(=O)N[C@H](Cc5ccc(O)cc5)C(=O)N[C@@H](Cc5c[nH]c6ccccc56)C(=O)N[C@@H](Cc5ccc(O)cc5)C(=O)N[C@@H](CC(C)C)C(=O)N[C@@H](CCC(N)=O)C(=O)N5CCC[C@H]5C(=O)NCC(=O)N[C@@H](Cc5ccc(O)cc5)C(=O)N[C@@H](C(C)C)C(=O)N[C@@H](CC(N)=O)C(=O)N[C@@H]([C@@H](C)CC)C(=O)N[C@@H](C(C)C)C(=O)N[C@@H]([C@@H](C)O)C(=O)N[C@@H](CO)C(=O)N[C@@H](Cc5ccc(O)cc5)C(=O)N[C@@H](Cc5c[nH]cn5)C(=O)N4)C(N)=O)C3=O)C2=O)C(N)=O)NC(=O)[C@H](Cc2c[nH]cn2)NC(=O)[C@H](Cc2ccc(O)cc2)NC(=O)[C@H](CO)NC(=O)[C@H]([C@@H](C)O)NC(=O)[C@H](C(C)C)NC1=O (some centres unmarked) [MuSK9 PEG3 dimer] (I: {CH2CO}-[dY]WYLQPGYVNIVTSYHCC-NH2 / II: {CH2CO}-[dY]WYLQPGYVNIVTSYHCC-NH2; linker I:18-II:18 via X2; thioether I:N-I:17, II:N-II:17)	0.0017	780000
I: Ac-[dY]LPEFSWPESFVLFLRQRQRQLGRGAEC-NH2 / II: Ac-[dY]LPEFSWPESFVLFLRQRQRQLGRGAEC-NH2 (linker I:28-II:28 via X1) [MuSK1Ac Term PEG11 dimer]	0.0018	520000
